Counter-ions that a name gives are not always drawn.
Target: T1, histamine H3 receptor (Homo sapiens, UniProt Q9Y5N1)
T1 construct: expressed in transfected cells; host or cells: CHO K1 cells (pSwitch/pGene GeneSwitch system, mifepristone-induced), clone 3H3; membranes
Experiment: Histamine H3 functional antagonist assay (method B)
Type: biochemical
Conditions: [35S]-GTPγS SPA, membrane prepared from cultured H3 cells, histamine at EC80, averages of a number of experiments, read-out: functional pKi (fpKi), antagonism (converted)
Source text: (§1) A membrane preparation containing histamine H3 receptors may be prepared in accordance with the following procedures:
(§2) (i) Generation of Histamine H3 Cell Line
(§3) DNA encoding the human histamine H3 gene (Huvar, A. et al. (1999) Mol. Pharmacol. 55(6), 1101-1107) was cloned into a holding vector, pcDNA3.1 TOPO (InVitrogen) and its cDNA was isolated from this vector by restriction digestion of plasmid DNA with the enzymes BamH1 and Not-1 and ligated into the inducible expression vector pGene (InVitrogen) digested with the same enzymes. The GeneSwitch™ system (a system where in transgene expression is switched off in the absence of an inducer and switched on in the presence of an inducer) was performed as described in U.S. Pat. Nos. 5,364,791; 5,874,534; and 5,935,934. Ligated DNA was transformed into competent DH5α E. coli host bacterial cells and plated onto Luria Broth (LB) agar containing Zeocin™ (an antibiotic which allows the selection of cells expressing the sh ble gene which is present on pGene and pSwitch) at 50 μg ml^−1. Colonies containing the re-ligated plasmid were identified by restriction analysis. DNA for transfection into mammalian cells was prepared from 250 ml cultures of the host bacterium containing the pGeneH3 plasmid and isolated using a DNA preparation kit (Qiagen Midi-Prep) as per manufacturers guidelines (Qiagen).
(§4) CHO K1 cells previously transfected with the pSwitch regulatory plasmid (InVitrogen) were seeded at 2×10e6 cells per T75 flask in Complete Medium, containing Hams F12 (GIBCOBRL, Life Technologies) medium supplemented with 10% v/v dialysed foetal bovine serum, L-glutamine, and hygromycin (100 μg ml^−1), 24 hours prior to use. Plasmid DNA was transfected into the cells using Lipofectamine plus according to the manufacturers guidelines (InVitrogen). 48 hours post transfection cells were placed into complete medium supplemented with 500 μg ml^−1 Zeocin™.
(§5) 10-14 days post selection 10 nM Mifepristone (InVitrogen), was added to the culture medium to induce the expression of the receptor. 18 hours post induction cells were detached from the flask using ethylenediamine tetra-acetic acid (EDTA; 1:5000; InVitrogen), following several washes with phosphate buffered saline pH 7.4 and resuspended in Sorting Medium containing Minimum Essential Medium (MEM), without phenol red, and supplemented with Earles salts and 3% Foetal Clone II (Hyclone). Approximately 1×10e7 cells were examined for receptor expression by staining with a rabbit polyclonal antibody, 4a, raised against the N-terminal domain of the histamine H3 receptor, incubated on ice for 60 minutes, followed by two washes in sorting medium. Receptor bound antibody was detected by incubation of the cells for 60 minutes on ice with a goat anti rabbit antibody, conjugated with Alexa 488 fluorescence marker (Molecular Probes). Following two further washes with Sorting Medium, cells were filtered through a 50 μm Filcon™ (BD Biosciences) and then analysed on a FACS Vantage SE Flow Cytometer fitted with an Automatic Cell Deposition Unit. Control cells were non-induced cells treated in a similar manner. Positively stained cells were sorted as single cells into 96-well plates, containing Complete Medium containing 500 μg ml^−1 Zeocin™ and allowed to expand before reanalysis for receptor expression via antibody and ligand binding studies. One clone, 3H3, was selected for membrane preparation.
(ii) Membrane Preparation from Cultured Cells
All steps of the protocol are carried out at 4° C. and with pre-cooled reagents. The cell pellet is resuspended in 10 volumes of homogenisation buffer (50 mM N-2-hydroxyethylpiperazine-N′-2-ethanesulfonic acid (HEPES), 1 mM ethylenediamine tetra-acetic acid (EDTA), pH 7.4 with KOH, supplemented with 10e-6M leupeptin (acetyl-leucyl-leucyl-arginal; Sigma L2884), 25 μg/ml bacitracin (Sigma B0125), 1 mM phenylmethylsulfonyl fluoride (PMSF) and 2×10e-6M pepstain A (Sigma)). […]

T1 sequence (Q9Y5N1 whole entry): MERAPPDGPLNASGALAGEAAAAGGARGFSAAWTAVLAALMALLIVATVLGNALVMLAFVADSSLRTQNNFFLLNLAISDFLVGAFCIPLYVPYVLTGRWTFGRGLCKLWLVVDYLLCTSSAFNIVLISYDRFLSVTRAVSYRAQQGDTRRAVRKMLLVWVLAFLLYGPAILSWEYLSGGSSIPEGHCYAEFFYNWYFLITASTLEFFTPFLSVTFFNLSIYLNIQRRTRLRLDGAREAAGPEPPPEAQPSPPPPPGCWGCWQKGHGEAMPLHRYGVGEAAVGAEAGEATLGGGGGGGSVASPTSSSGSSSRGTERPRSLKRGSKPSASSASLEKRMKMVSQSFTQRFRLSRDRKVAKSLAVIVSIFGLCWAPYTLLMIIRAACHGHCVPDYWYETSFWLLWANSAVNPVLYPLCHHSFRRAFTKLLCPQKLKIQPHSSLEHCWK

Structure (SMILES) | Ki [nM]
Cc1nc(-c2ccc(N3CC[C@H](C(=O)N4CCN(C(C)C)CC4)C3)cc2)no1 [Example E33, 1-(1-Methylethyl)-4-({(3S)-1-[4-(5-methyl-1,2,4-oxadiazol-3-yl)phenyl]-3-pyrrolidinyl}carbonyl)piperazine] | ≤ 0.316
CC(C)N1CCN(C(=O)[C@H]2CCN(c3ccc(C#N)cc3)C2)CC1 [Example E36, 4-((3S)-3-{[4-(1-Methylethyl)-1-piperazinyl]carbonyl}-1-pyrrolidinyl)benzonitrile hydrochloride] | ≤ 0.316
CC(C)N1CCN(C(=O)[C@H]2CCN(c3ccc(-c4ccno4)cc3)C2)CC1 [Example E41, 1-({(3S)-1-[4-(5-isoxazolyl)phenyl]-3-pyrrolidinyl}carbonyl)-4-(1-methylethyl)piperazine] | ≤ 0.316
CCc1noc(-c2ccc(N3CC[C@H](C(=O)N4CCCN(C(C)C)CC4)C3)cc2)n1 [Example E48, 1-({(3S)-1-[4-(3-Ethyl-1,2,4-oxadiazol-5-yl)phenyl]-3-pyrrolidinyl}carbonyl)-4-(1-methylethyl)hexahydro-1H-1,4-diazepine hydrochloride] | ≤ 0.316
Cc1noc(-c2ccc(N3CC[C@H](C(=O)N4CCN(C5CCC5)CC4)C3)cc2F)n1 [Example E52, 1-Cyclobutyl-4-({(3S)-1-[3-fluoro-4-(3-methyl-1,2,4-oxadiazol-5-yl)phenyl]-3-pyrrolidinyl}carbonyl)piperazine hydrochloride] | ≤ 0.316
Cc1noc(-c2ccc(N3CC[C@H](C(=O)N4CCN(C(C)C)CC4)C3)cn2)n1 [Example E54, 1-(1-Methylethyl)-4-({(3S)-1-[6-(3-methyl-1,2,4-oxadiazol-5-yl)-3-pyridinyl]-3-pyrrolidinyl}carbonyl)piperazine hydrochloride] | ≤ 0.316
Cc1cn(-c2ccc(N3CC[C@H](C(=O)N4CCN(C(C)C)CC4)C3)cc2)cn1 [Example E55, 1-(1-Methylethyl)-4-({(3S)-1-[4-(4-methyl-1H-imidazol-1-yl)phenyl]-3-pyrrolidinyl}carbonyl)piperazine dihydrochloride] | ≤ 0.316
Cc1noc(-c2ccc(N3CC[C@H](C(=O)N4CCCN(CC5CC5)CC4)C3)cn2)n1 [Example E58, hydrochloride] | ≤ 0.316

Further lines, results first:

Ki [nM] | Structure (SMILES)
≤ 0.316 | O=C(C1CCN(c2ccc(C(F)(F)F)nc2)C1)N1CCCN(C2CCC2)CC1 (racemic) [Example E17, (R,S)-1-Cyclobutyl-4-({1-[6-(trifluoromethyl)-3-pyridinyl]-3-pyrrolidinyl}carbonyl)hexahydro-1H-1,4-diazepine]
≤ 0.316 | Cc1nc(-c2ccc(N3CC[C@H](C(=O)N4CCN(C(C)C)CC4)C3)cc2)co1 [Example E32A, 1-(1-Methylethyl)-4-({(3S)-1-[4-(2-methyl-1,3-oxazol-4-yl)phenyl]-3-pyrrolidinyl}carbonyl)piperazine]
≤ 0.316 | Cc1ncc(-c2ccc(N3CC[C@H](C(=O)N4CCN(C(C)C)CC4)C3)cc2)o1 [Example E34, 1-(1-Methylethyl)-4-({(3S)-1-[4-(2-methyl-1,3-oxazol-5-yl)phenyl]-3-pyrrolidinyl}carbonyl)piperazine]
≤ 0.316 | CC(C)N1CCN(C(=O)[C@H]2CCN(c3ccc(-c4nnc(-c5ccccc5)o4)cc3)C2)CC1 [Example E40, 1-(1-Methylethyl)-4-({(3S)-1-[4-(5-phenyl-1,3,4-oxadiazol-2-yl)phenyl]-3-pyrrolidinyl}carbonyl)piperazine]
≤ 0.316 | CC(C)N1CCN(C(=O)[C@H]2CCN(c3ccc(-n4ccnc4)cc3)C2)CC1 [Example E43, 1-({(3S)-1-[4-(1H-imidazol-1-yl)phenyl]-3-pyrrolidinyl}carbonyl)-4-(1-methylethyl)piperazine]
≤ 0.316 | Cc1nnc(-c2ccc(N3CC[C@H](C(=O)N4CCCN(C(C)C)CC4)C3)cc2)o1 [Example E47, 1-(1-Methylethyl)-4-({(3S)-1-[4-(5-methyl-1,3,4-oxadiazol-2-yl)phenyl]-3-pyrrolidinyl}carbonyl)hexahydro-1H-1,4-diazepine hydrochloride]
≤ 0.316 | CCc1noc(-c2ccc(N3CC[C@H](C(=O)N4CCN(C(C)C)CC4)C3)cc2)n1 [Example E49, 1-({(3S)-1-[4-(3-Ethyl-1,2,4-oxadiazol-5-yl)phenyl]-3-pyrrolidinyl}carbonyl)-4-(1-methylethyl)piperazine hydrochloride]
≤ 0.316 | Cc1noc(-c2ccc(N3CC[C@H](C(=O)N4CCN(C5CCC5)CC4)C3)cn2)n1 [Example E51, 1-Cyclobutyl-4-({(3S)-1-[6-(3-methyl-1,2,4-oxadiazol-5-yl)-3-pyridinyl]-3-pyrrolidinyl}carbonyl)piperazine hydrochloride]
≤ 0.316 | Cc1noc(-c2ccc(N3CC[C@H](C(=O)N4CCCN(C(C)C)CC4)C3)cn2)n1 [Example E53, 1-(1-Methylethyl)-4-({(3S)-1-[6-(3-methyl-1,2,4-oxadiazol-5-yl)-3-pyridinyl]-3-pyrrolidinyl}carbonyl)hexahydro-1H-1,4-diazepine hydrochloride]

Target: T1, histamine H3 receptor
Experiment: Histamine H3 functional antagonist assay (method A)
Type: biochemical
Conditions: [35S]-GTPγS SPA, membrane prepared from cultured H3 cells, histamine at EC80, averages of a number of experiments, read-out: functional pKi (fpKi), antagonism (converted)
Source text: as §1, §2, §3, §4, §5
(ii) Membrane Preparation from Cultured Cells […]

Structure (SMILES) | Ki [nM]
O=C(C1CCN(c2ccc(C(F)(F)F)nc2)C1)N1CCCN(C2CCC2)CC1 (racemic) [Example E17, (R,S)-1-Cyclobutyl-4-({1-[6-(trifluoromethyl)-3-pyridinyl]-3-pyrrolidinyl}carbonyl)hexahydro-1H-1,4-diazepine] | < 0.316
CC(C)N1CCCN(C(=O)C2CCN(c3ccc(C(F)(F)F)nc3)C2)CC1 (racemic) [Example E22, (R,S)-1-(1-Methylethyl)-4-({(1-[6-(trifluoromethyl)-3-pyridinyl]-3-pyrrolidinyl}carbonyl)hexahydro-1H-1,4-diazepine hydrochloride] | < 10
O=C(C1CCN(c2ccnc(C(F)(F)F)c2)C1)N1CCCN(C2CCC2)CC1 (racemic) [Example E23, (R,S)-1-Cyclobutyl-4-({1-[2-(trifluoromethyl)-4-pyridinyl]-3-pyrrolidinyl}carbonyl)hexahydro-1H-1,4-diazepine hydrochloride] | < 0.316
O=C([C@@H]1CCN(c2ccc(C(F)(F)F)nc2)C1)N1CCCN(C2CCC2)CC1 (single isomer, unassigned) [Example E17A, hydrochloride] | < 0.316
O=C([C@H]1CCN(c2ccc(C(F)(F)F)nc2)C1)N1CCCN(C2CCC2)CC1 (single isomer, unassigned) [Example E17B, hydrochloride] | < 0.316
